From US20020076827A1, “Methods for diagnosing thyroid conditions and for monitoring thyroxine therapy” (priority 2000, published 2002)

What was measured:
[1] = in vivo; cited from earlier work
[2] = Stability of urine standard sub-pools measured monthly; format: physicochemical; conditions: 2 ml vials stored at -20 degrees Centigrade
Description: These sub-pools were aliquoted into 2 ml vials and stored as above.

[3] = Stability of urinary T3 for time and temperature; format: physicochemical
[4] = Conjugates of T4 and T3 in patients' urine by enzymatic hydrolysis and IMx measurement; parameters: species or system human
Description: Thyroxine glucuronidate in urine was hydrolysed with Sigma bacterial β-glucuronidase. The time interval for hydrolysis was tested from 1 to 24 hours under the conditions recommended by Sigma. It was also hydrolyzed by 0.2 N hydrochloric acid at pH 2 over a period of less than one hour.
Bacterial sulfatase (Sigma) was used as directed. […] To confirm our data, triodothyronine sulfate was synthesized by methods of Levitz (personal communication) for radioactive estrone glucuronide.

[5] = Stability of synthesized T3-sulfate; format: physicochemical; conditions: when not stored in liquid form in appropriate buffer
Description: Bacterial sulfatase (Sigma) was used as directed. We found little evidence of the presence of thyroxine sulfate in urine in our preliminary studies but significant levels of triiodothyronine-sulfate were present. To confirm our data, triodothyronine sulfate was synthesized by methods of Levitz (personal communication) for radioactive estrone glucuronide. T3-sulfate gave a unique spectrum with a major absorption maximum at 362 nm as compared to triiodothyronine whose major absorption maxima occurred at 318.

[6] = stored with at least 20% (v/v) of buffer

N[C@@H](Cc1ccc(Oc2cc(I)c(O)c(I)c2)c(I)c1)C(=O)O [RT3]
metabolic clearance rate [1]: 111 L/d/70 kg

N[C@@H](Cc1cc(I)c(Oc2ccc(O)c(I)c2)c(I)c1)C(=O)O [T3, O-(4-hydroxy-3-iodophenyl)-3,5-diiodo-L-tyrosine]
concentration in urine standard sub-pools over time [2]: unchanged for over a year | stability of T3 standards ([3]; all conditions of time and temperature): stable under all conditions | stability of urinary T3, frozen state [3, 6]: stable for months | stability of urinary T3, room temperature [3, 6]: over 3 days | stability of urinary T3, native state ([3]; without buffer, frozen and room temperature): deteriorated in both environments at an accelerated rate | metabolic clearance rate [1]: 24 L/d/70 kg

N[C@@H](Cc1cc(I)c(Oc2ccc(OS(=O)(=O)O)c(I)c2)c(I)c1)C(=O)O [T3-sulfate, triiodothyronine-sulfate]
urinary concentration of conjugate relative to parent compound ([4]; human urine, before and after hydrolysis): about one-third to one-half | stability of T3-sulfate [5]: unstable and rapidly deteriorated

NC(Cc1cc(I)c(Oc2cc(I)c(O)c(I)c2)c(I)c1)C(=O)O (centres unmarked) [T4, O-(4-hydroxy-3,5-didiodophenyl)-3,5-diiodotyrosine]
form of conjugation in urine [4]: almost exclusively as a glucuronide | metabolic clearance rate [1]: 1.2 L/d/70 kg
